“And” between values parts separate entries of the source, which are not always exact repeats. Identical values can stand only once. Like-named read-outs stand apart in the source and are kept apart here.

The text below walks through data of patent US8017575B2 (priority 2004, dated 2011).

Series [1] concerns beta receptors. Put plainly: Heart rate test of beta blockade (propranolol vs isoproterenol). It counts as in vivo, rat. On the procedure:
Identification of Blocking Dose of […]: A standard surgical preparation, laparotomy and portal vein puncture were performed on an anesthetized rat. […] (Heart rate was measured using a Grass AC/DC Strain gauge amplifier and National Instrument data acquisition software.) Following stabilization, isoproterenol (0.5 μg/kg/min-IV) was administered at a rate of 0.1 ml/min for 5 minutes. Heart rate and glucose levels were analyzed in the last 30 seconds of isoproterenol administration and 15 minutes subsequent to discontinuation of isoproterenol infusion.

Series [2] has as its system insulin sensitivity. Put plainly: Rapid Insulin Sensitivity Test (RIST) before/after hemorrhage to 50 mmHg (hemorrhage-induced HDIR). It is filed as in vivo, rat. The method, then:
(§1) Surgical Procedures: Male Sprague Dawley rats (Charles River, St. Constant, Quebec, Canada) were housed in climate-controlled conditions for at least 6 days prior to surgical preparation. The animals were fasted for 8 hours, and then allowed ad lib access to standard rat chow for 2 hours prior to surgical preparation. […] The animals were weighed and anesthetized by an intraperitoneal injection of pentobarbital sodium (65 mg/ml, Somnotol, Biomeda-MTC Animal Health Inc., Cambridge Canada). Temperature was monitored by a rectal thermometer and kept constant at 37.5±0.5° C. by a heated surgical table and an overhead lamp. […] Animals were heparinized (100 IU/kg). Blood samples were taken by puncturing the arterial side of the arterial-venous shunt. The infusion of pharmacological agents was done by puncturing and inserting an infusion line into the silicon sleeve of the venous side of the shunt. Arterial pressure was measured by clamping the silicon sleeve on the venous side of the shunt, and measuring pressure from a side branch. A tracheotomy was performed (Micro-Renathane Tubing (095), Braintree Scientific Inc.) The left jugular vein was then cannulated with PE60 tubing in order to allow for continuous supplemental anesthetic (sodium pentobarbital, 2.16 mg/ml saline) infusion at a rate of 0.5 ml/hr/100 g of body weight. An infusion line was inserted into a silicon sleeve on the jugular supplement line for glucose administration and was controlled by a variable infusion pump (Genie, Kent Scientific Corporation, Litchfield, Mass.). The cannulation of the femoral artery and vein, the tracheotomy and the jugular vein cannulation is the standard surgical preparation.
(§2) After surgical completion, the animal was allowed to stabilize for 30 minutes, after which arterial blood samples (25 μl) were taken from the shunt and analyzed for blood glucose concentration using a glucose oxidase analyzer (Yellow Springs Instruments, Yellow Springs, Ohio). Samples were analyzed at five-minute intervals until 3 successive stable measurements were obtained. The mean of these 3 samples was used as the basal glucose level. […] At 45 seconds, a glucose infusion was initiated and adjusted to maintain euglycemia as determined by the basal glucose level. An arterial sample was taken from the arterial-venous shunt every 2 minutes during the RIST, and the glucose infusion was increased or decreased accordingly. […] The amount of glucose infused over the RIST (mg glucose/kg of body weight) is known as the RIST index.
(§3) Following the standard surgical procedure described above, a control RIST was performed. The anesthetized animal was hemorrhaged to an arterial blood pressure of 50 mmHg and held at this pressure for a 10 minute interval, by withdrawing additional blood as needed. Blood was not returned. The animal was hemorrhaged from the arterial side of the shunt, using a 23-gauge needle attached to a syringe, at a rate of 0.5 ml/min. Arterial blood pressure was measured from the vascular shunt during brief occlusion of the venous side of the shunt. Following the hemorrhage, arterial blood glucose levels were measured until they became stable for at least 15 minutes and another RIST was performed.
A control RIST was performed after a 30 minute stabilization period. […] A post hemorrhage RIST was then done as soon as a stable glycemic baseline had been established.
Effect of Phentolamine on HDIR following Hemorrhage: Following a standard surgical preparation, a laparotomy and portal puncture was performed. After a 30 minute stabilization period, a control RIST was performed. Following the RIST, phentolamine (400 μg/kg/min-IPV, 10 minute infusion at a rate of 0.025 ml/min), or cyclosomatostatin (20 μg/kg/min-IPV, continuous infusion at a rate of 0.025 ml/min) was administered. The rat was restabilized and then hemorrhaged to an arterial blood pressure of 50 mmHg and held at this pressure for a ten-minute interval.

The nature of series [3]: Arterial blood glucose (glycemia) during drug infusion and hemorrhage. It is filed as in vivo, rat. On the procedure: as §2, §3
Effect of Phentolamine on HDIR following Hemorrhage: Following a standard surgical preparation, a laparotomy and portal puncture was performed. After a 30 minute stabilization period, a control RIST was performed. Following the RIST, phentolamine (400 μg/kg/min-IPV, 10 minute infusion at a rate of 0.025 ml/min), or cyclosomatostatin (20 μg/kg/min-IPV, continuous infusion at a rate of 0.025 ml/min) was administered. The rat was restabilized and then hemorrhaged to an arterial blood pressure of 50 mmHg and held at this pressure for a ten-minute interval. […]

Series [4] concerns insulin sensitivity. Put plainly: RIST during somatostatin infusion (somatostatin-induced HDIR). It is filed as in vivo, rat. On the procedure: as §1, with “The cannulation of the femoral artery and vein, the tracheotomy and the jugular vein cannulation is the standard surgical preparation.” left out
After surgical completion, the animal was allowed to stabilize for 30 minutes, after which arterial blood samples (25 μl) were taken from the shunt and analyzed for blood glucose concentration using a glucose oxidase analyzer (Yellow Springs Instruments, Yellow Springs, Ohio). Samples were analyzed at five-minute intervals until 3 successive stable measurements were obtained. […] At 45 seconds, a glucose infusion was initiated and adjusted to maintain euglycemia as determined by the basal glucose level. […]

The conditions of series [5]: for Volume of Distribution, Percent Change (reduction): SMA ligation vs control. On the procedure:
Following the hemorrhage, another RIST was performed. […] The samples were centrifuged and the plasma was frozen immediately on dry ice, and stored at −80° C.
A snare was inserted around the artery so that it could be occluded. The animal was allowed to rest for a 30 minute interval.

Setting [6] is: SMA ligation series, SMA ligated.
[7] abbreviates: hemorrhage series, control, insulin 50 mU/kg 30 second bolus.

For `CC(C)NCC(O)c1ccc(O)c(O)c1` (stereo not shown) [isoproterenol], in series [1] (isoproterenol 0.5 μg/kg/min-IV subsequent to propranolol 1.5 mg/kg-IPV), the “heart rate (remained at original baseline level)” value turned out to be 415.3±5.9 beats/min. Also, in series [1] (isoproterenol alone), the “increase in basal heart rate” value is on record as 125.2±9.8 beats/min.

For the compound `Cc1ccc(N(CC2=NCCN2)c2cccc(O)c2)cc1` [phentolamine], in series [2] (Example 7: phentolamine 400 μg/kg/min-IPV), the “prevention of HDIR subsequent to hemorrhage” value was “unable to prevent HDIR”. Besides, in series [2] (Example 7: phentolamine 400 μg/kg/min-IPV prior to hemorrhage, control 213.1±8.4, n=7), the “post hemorrhage RIST index” value is on record as 145.4±9.2 mg of glucose/kg. The “decrease in insulin sensitivity (RIST index) between control and post hemorrhage RIST” value in series [2] (Example 7: phentolamine 400 μg/kg/min-IPV prior to hemorrhage, n=7) is 31.8%; in series [2] (Example 7: phentolamine 400 μg/kg/min-IPV prior to hemorrhage, n=7, listed as Phentolamine) it was 31.8% and 31.8±5.5%. Also, in series [3] (phentolamine 400 μg/kg/min-IPV prior to hemorrhage (18.2±4.2% without agents)), the “increase in glycemia during hemorrhage” value was 1.1±0.9% and 1.1%.

Consider `CC(C)NCC(O)COc1cccc2ccccc12` (stereo not shown) [propranolol], for which the “block of the acceleration in heart rate caused by isoproterenol” value in series [1] (propranolol 1.5 mg/kg) is on record as “completely block”. The “reduction in basal heart rate” value in series [1] (propranolol 1.5 mg/kg-IPV) is 70.6±1.3 beats/min. Moreover, in series [2] (Example 8: propranolol 1.5 mg/kg-IPV), the “prevention of HDIR subsequent to hemorrhage” value is on record as “unable to prevent HDIR”. In addition, in series [3] (propranolol 1.5 mg/kg-IPV prior to hemorrhage), the “increase in glycemia following hemorrhage” value is 17.4±3.3% and 17.4%.

cyclosomatostatin: the “post hemorrhage RIST index” value in series [2] (Example 9: cyclosomatostatin 20 μg/kg/min-IPV continuous, started prior to hemorrhage, initial RIST 214.3±8.8, n=5) is reported as 217.5±8.5 mg of glucose/kg. In addition, the “prevention of HDIR following hemorrhage” value in series [2] (Example 9: cyclosomatostatin 20 μg/kg/min-IPV prior to hemorrhage, n=5) is listed as “prevented the occurrence of HDIR”. Besides, in series [3] (cyclosomatostatin 20 μg/kg/min-IPV, infused 67.2±4.8 minutes), the “increase in glycemia following hemorrhage” value came to 19.9±2.0%. For the same compound, the “prevention of somatostatin-induced HDIR” value in series [4] (Example 6: cyclosomatostatin 20 μg/kg/min-IPV continuous infusion, n=3) is listed as “significantly prevented the occurrence of HDIR”. For the same compound, in series [4] (Example 6: cyclosomatostatin 20 μg/kg/min-IPV with somatostatin 0.16 μg/kg/min, control 215.9±7.4, n=3), the “cyclosomatostatin and somatostatin RIST index” value is recorded as 213.1±8.6 mg of glucose/kg. For the same compound, in series [4] (pilot studies, cyclosomatostatin 10 μg/kg/min), the “blockade of somatostatin induced HDIR” value is on record as “did not produce a full blockade”.

For “insulin: Human insulin (Humulin R) purchased from Eli Lilly”, the results for the Clearance in series [5] (setting [6]) and in series [5] (setting [7]) were 0.667 ± 0.0167 mL/min/kg and 1.03 ± 0.15 mL/min/kg, respectively. The “Volume of Distribution” value in series [5] (setting [6]) was determined as 0.03 ± 0.003 L/kg; in series [5] (setting [7]), 0.056 ± 0.012 L/kg. For the same compound, the “Volume of Distribution, Percent Change (reduction)” value in series [5] was determined as 69.4±2.2%; in series [5] (listed as Insulin), 69.39%. Moreover, in series [5] (after hemorrhage, n=4), the “insulin concentration at the 1 minute mark of the RIST” value amounted to 27.5 ± 3.8 µg/L. Besides, the “time for insulin to decrease to baseline” value in series [5] (both control and hemorrhage RISTs, 30 second bolus 50 mU/kg) turned out to be 5 min.
